Experimental data reported in patent US20230405063A1, “USE OF PROBIOTIC COMPONENT AND PHARMACEUTICAL COMPOSITION CONTAINING PROBIOTIC COMPONENT” (CHENGDU KUACHANGAOPU MEDICAL TECHNOLOGY CO., LTD., priority 2020, published 2023).

Tests used:
[1] = system: human liver cancer HepG2 cells; assay: Tumor inhibition in HepG2 tumor-bearing nude mice (Example 2, Table 4); type: in vivo; conditions: for Tumor weight (x ± s) / Tumor inhibition rate r: dosed once, 150 μl/mouse; for Tumor weight (x ± s): 7th day after administration; for Tumor inhibition rate r: 7th day, relative to negative control; for Ratio of tumor inhibition rates, intratumoral group / intravenous group of the same drug (E7/E1, E8/E2, E10/E4): same drug and dose, local vs systemic administration
Experimental: The tumor-bearing nude mice were widely used for drug studies on chemotherapy rather than immunotherapy in patients with solid tumors. Taking nude mice as experimental subjects, human liver cancer HepG2 cells were used as modeling cells, and 1×10^5 cells/mouse were injected into the right axilla subcutaneously for transplantation tumor modeling, and the average tumor volume of successfully modeled nude mice was 161.3 mm^3. The model animals were randomly divided into 17 groups. The drugs were administered according to the drug and dosing method in Table 4. Each group was dosed once with an injection volume of 150 μl/mouse. On the 7th day after drug administration, the animals were euthanized, and after dissection, the tumor tissue was taken out to determine the tumor weight, and the tumor inhibition rate (r) was calculated relative to the negative control group.

fibroblast 3T3 cells = assay: Tumor incidence rate after 3T3 cell transplantation (S3T3) on day 30 (Example 12, Table 18); type: in vivo, BALB/c mice; conditions: cells transplanted on 30th day, observed 10th day after transplantation; for Series A S3T3 (tumor incidence rate of 3T3 cell transplantation): series A modeled mice, intratumoral injection; for Series B S3T3 (tumor incidence rate of 3T3 cell transplantation): series B unmodeled mice, intramuscular injection into right hind thigh
Experimental: BALB/c mice were used as experimental subjects, in which modeled animals were used as series A and unmodeled animals as series B. […] The modeled animals were randomly divided into 18 groups, with 10 animals in each group, and the drugs according to Table 18 was administered via intratumoral injection. BALB/c mice were additionally taken as experimental subjects without modeling, and randomly divided into 18 groups, with 10 animals in each group, the drugs according to Table 18 was administered via intramuscular injection into the right hind thigh. All the study drugs comprising probiotic components were formulated as aqueous formulations according to the preparation method of Example 1, and the other drugs were formulated as aqueous solutions according to the existing well-known methods. Each group was administered twice at an interval of 3 days, and the dosage was 50 ul/mouse/time.

breast cancer 4T1 cells [2] = assay: Extra-tumoral local administration in 4T1 tumor-bearing BALB/c mice, R7d/R21d (Example 11, Table 17); type: in vivo; conditions: subaxillary intradermal (extra-tumoral), twice at 7-day interval, 120 μl/mouse/time; for R7 d (relative tumor proliferation rate): day 7 after last dose; for R21 d (relative tumor proliferation rate): day 21 after last dose
Experimental: (§1) V=0.5×a×b^2, wherein a and b represent the length and width of the local lesion, respectively; Volume of the local lesion (e.g. tumor):
(§2) Local lesion (e.g., tumor) proliferation rate (R)=TV/CV×100, wherein TV and CV are the local lesion volumes in the study group and negative control group, respectively;
In the following examples of the present invention, the combinational pharmaceutical efficacies (drug efficacies) of drug A and drug B co-administration was determined by ratio q of actual pharmaceutical efficacy (drug efficacy)/theoretical pharmaceutical efficacy (drug efficacy) according to Zhengjun JIN method, as follows.
BALB/c mice were used as experimental subjects, and breast cancer 4T1 cells were used as modeling cells. 0.25×10^5 cells/mouse were injected into the right axilla subcutaneously for transplantation tumor modeling. On the 5th day after modeling, the test animals with visually obvious tumors were randomly divided into 12 groups, having 10 animals in each group. […] In groups 1-11, on days 7 and 21 after the last dose the tumor volume (V7d, V21d) were measured, and the relative tumor proliferation rates (R7d, R21d) were calculated relative to the negative control group on days 7 and 21 after the dose, so that the short-term therapeutic effectiveness (100%−R7d) and the medium- and long-term therapeutic effectiveness (100%−R21d) could be calculated, respectively. Further, based on the short-term therapeutic effectiveness and the medium- and long-term therapeutic effectiveness, the actual/expected ratio for short-term pharmaceutical efficacies q7d and the actual/expected ratio for medium- and long-term pharmaceutical efficacies q21d were calculated respectively.

[3] = system: mouse embryonic fibroblasts 3T3; assay: Local lesion inhibition in 3T3 fibroblast nodule model in nude mice (Example 6, Table 9); type: in vivo; conditions: dosed twice at interval of 2 days, 150 μl/mouse/time, 7th day after final administration; for V (x ± s), volume of local lesions, series B / relative local lesion inhibition rate r′B: intra-nodal injection; for V (x ± s), volume of local lesions, series A / relative local lesion inhibition rate r′A: intraperitoneal injection
Description: as §1, §2
(§3) The method for determining the effect of combined drug administration in animal experiments was Burgi method (Burgi Y. Pharmacology; Drug actions and reactions. Cancerres. 1978, 38(2), 284-285). The Burgi method was modified by Zhengjun JIN (Zhengjun JIN, Equal probability and curve and “Q50”, Journal of the Second Shanghai Medical College; 1981, 1, 75-86) with q calculated as: q=EA+B/(EA+EB−EA×EB). In the following examples of the present invention, the combinational pharmaceutical efficacies (drug efficacies) of drug A and drug B co-administration was determined by ratio q of actual pharmaceutical efficacy (drug efficacy)/theoretical pharmaceutical efficacy (drug efficacy) according to Zhengjun JIN method, as follows.
Nude mice were used as experimental subjects, and mouse embryonic fibroblasts 3T3 were used as modeling cells. 2×10^4 cells/mouse were injected into the right axilla subcutaneously for transplantation nodule modeling, and the average volume of tumor-like nodules in successfully modeled nude mice was 171.5 mm^3. The model animals were randomly divided into […], and the drugs were administered according to Table 9. Each group except for groups 21-24 were administered by intraperitoneal injection, intra-nodal injection. The drugs used in groups 21-24 were a composition of non-local administration dosage form (dosage form that a probiotic component and a co-administration substance could be administered separately). The administration route of series A was: intraperitoneal injection of probiotic component+intra-nodal injection of co-administration substance; and the administration route of series B was: intraperitoneal injection of co-administration substance+intra-nodal injection of probiotic component. Each group was dosed twice at an interval of 2 days, with an injection volume of 150 μl/mouse/time. On the 7th day after the final administration, the volume (V) of local lesions comprising fibroblasts was measured, and the relative local lesion inhibition rates (r′A, r′B) were calculated for series A and series B, respectively, as compared with the negative control group. Further, the actual drug efficacy/expected efficacy ratio q could also be calculated according to the therapeutic effect (local lesion inhibition rate).

breast cancer 4T1 cells [4] = assay: Short- and medium/long-term relative tumor proliferation rate in 4T1 tumor-bearing BALB/c mice (Example 10, Table 16); type: in vivo; conditions: intratumoral injection, dosed twice at interval of 7 days, 100 μl/mouse/time; for relative tumor proliferation rate R7 d: day 7 after last dose; for relative tumor proliferation rate R21 d: day 21 after last dose
Description: as §1, §2, §3
BALB/c mice were used as experimental subjects, and breast cancer 4T1 cells were used as modeling cells. 0.5×10^6 cells/mouse were injected into the right axilla subcutaneously for transplantation tumor modeling, and the average tumor volume of successfully modeled nude mice was 107.4 mm^3. The model animals were randomly divided into 17 groups.
The drugs, formulated according to the method of Example 1, were administered according to Table 16. Each group was dosed twice with an interval of 7 days, and the injection volumes were 300 μl/mouse/time for groups 13 and 14, 100 μl/mouse/time for other groups. The drugs were administered by subaxillary administration of the right forelimb for group 15, and by intratumoral injection for other groups. Group 16 was administered sequentially (the first dose was aprobiotic semi-fluid-like component/cytotoxic drug/weak local acting compound, and the last dose was inactivated probiotics), while the other groups were administered with the same drug twice. On days 7 and 21 after the last dose, the tumor volumes of each group were measured (V7d, V21d), and the relative tumor proliferation rates (R7d, R21d) were calculated relative to the negative control group, respectively, so that the short-term therapeutic effectiveness (100%−R7d) and the medium- and long-term therapeutic effectiveness (100%−R21d) could be calculated, respectively.

O=c1[nH]cc(F)c(=O)[nH]1 [1% 5-fluorouracil, 5-fluorouracil]
Tumor weight (x ± s) ([1]; intratumoral injection): 0.133 ± 0.094 g
Tumor inhibition rate r ([1]; intratumoral injection): 49.5%
Tumor weight (x ± s) ([1]; intravenous injection): 0.139 ± 0.094 g
Tumor inhibition rate r ([1]; intravenous injection): 42.3%
Ratio of tumor inhibition rates, intratumoral group / intravenous group of the same drug (E7/E1, E8/E2, E10/E4) [1]: < 200%
Series A S3T3 (tumor incidence rate of 3T3 cell transplantation) (fibroblast 3T3 cells): 100%
Series B S3T3 (tumor incidence rate of 3T3 cell transplantation) (fibroblast 3T3 cells): 100%
R7 d (relative tumor proliferation rate) (breast cancer 4T1 cells [2]): 73%
R21 d (relative tumor proliferation rate) (breast cancer 4T1 cells [2]): 93%
V (x ± s), volume of local lesions, series B [3]: 1.226 ± 0.217 cm^3
relative local lesion inhibition rate r′B [3]: 14.3%
V (x ± s), volume of local lesions, series A [3]: 1.225 ± 0.211 cm^3
relative local lesion inhibition rate r′A [3]: 9.7%
relative tumor proliferation rate R7 d (breast cancer 4T1 cells [4]): 51%
relative tumor proliferation rate R21 d (breast cancer 4T1 cells [4]): 93%

CCO [75% ethanol, ethanol]
Tumor weight (x ± s) ([1]; intratumoral injection): 0.122 ± 0.085 g
Tumor inhibition rate r ([1]; intratumoral injection): 53.6%
Tumor weight (x ± s) ([1]; intravenous injection): 0.226 ± 0.113 g
Tumor inhibition rate r ([1]; intravenous injection): 6.1%
Ratio of tumor inhibition rates, intratumoral group / intravenous group of the same drug (E7/E1, E8/E2, E10/E4) [1]: > 200%
Series A S3T3 (tumor incidence rate of 3T3 cell transplantation) (fibroblast 3T3 cells): 100%
Series B S3T3 (tumor incidence rate of 3T3 cell transplantation) (fibroblast 3T3 cells): 100%
R7 d (relative tumor proliferation rate) (breast cancer 4T1 cells [2]): 92%
R21 d (relative tumor proliferation rate) (breast cancer 4T1 cells [2]): 107%
V (x ± s), volume of local lesions, series B [3]: 1.078 ± 0.221 cm^3
relative local lesion inhibition rate r′B [3]: 24.7%
V (x ± s), volume of local lesions, series A [3]: 1.300 ± 0.197 cm^3
relative local lesion inhibition rate r′A [3]: 4.2%
relative tumor proliferation rate R7 d (breast cancer 4T1 cells [4]): 47%
relative tumor proliferation rate R21 d (breast cancer 4T1 cells [4]): 95%
